According to patent publication US20250066328A1, “PARP7 INHIBITORS” (Gilead Sciences, Inc., priority 2023, published 2025):

test system: STAT1 (phosphorylated at Tyr701) in NCI-H1373 cells; test: Phospho-STAT1 (Tyr701) LANCE Ultra TR-FRET detection assay in NCI-H1373 cells; format: cell-based; conditions: Homo sapiens, NCI-H1373, 48 h, 48 hours incubation, induction of pSTAT1, normalized to 10 uM positive control and DMSO, 4-parameter fit, read-out: NH1373 pSTAT1 EC50
Procedure: Phospho-STAT1 (Tyr701 LANCE Ultra TR-FRET Detection Assay
LANCE Ultra phospho-STAT1 (Tyr701) kits are designed for the detection of phosphorylated STAT1 in cell lysates using a simple, homogeneous LANCE Ultra sandwich assay (Cat. #TRF4028M). This assay is intended for assessing compound induction of endogenous levels of cellular STAT1 (phosphorylated at Tyr701) in NCI-H1373 cells. The NCI-H1373 cells are cultured in RPMI 1640 media containing 10% heat inactivated FBS, GlutaMAX, 1% Penicillin-Streptomycin. An Echo acoustic liquid handler is used to transfer 60 nanoliters of compound dilutions using the Echo Qualified, 384-well polypropylene microplate clear flat bottom source plates into a Greiner (#781080) cell culture microplate. NCI-H1373 cells are seeded into these compound-spotted culture plates at 30,000 cells/well in a 60 uL volume in growth media. The plates are incubated in a 5% CO2 humidified incubator at 37° C. for 48 hours. […] Briefly, […] of supplemented lysis buffer is added to each well and allowed to shake for 1 hour at 400 rpm. Next, 5 ul of remixed antibody solutions (vol/vol) prepared in detection buffer are added to each well and allowed to incubate at room temperature overnight. After spinning the plate down at 300 rpm for 1 min, the plate is read on an EnVision plate reader set up for Eu^3+ Cryptate and fluorescence emission is measured at two different wavelengths (665 nm and 620 nm). The HTRF ratio is then calculated ([…]) for each well to determine the amount of pSTAT1 in the cell lysate, and the data is then normalized to 10 uM (S)-5-((1-(3-oxo-3-(4-(5-(trifluoromethyl)pyrimidin-2-yl)piperazin-1-yl)propoxy)propan-2-yl)amino)-4-(trifluoromethyl)pyridazin-3(2H)-one positive and DMSO negative controls. The values were then plotted as a function of compound concentration and a 4-parameter fit was applied to derive the EC50 values.

For `C[C@@H](CC(F)Cn1ccc2cc(-c3ncc(C(F)(F)F)cn3)c(F)cc2c1=O)Oc1cn[nH]c(=O)c1C(F)(F)F` (stereo partly drawn) [Example 11, 7-fluoro-2-((4S)-2-fluoro-4-((6-oxo-5-(trifluoromethyl)-1,6-dihydropyridazin-4-yl)oxy)pentyl)-6-(5-(trifluoromethyl)pyrimidin-2-yl)isoquinolin-1(2H)-one], which EC50 is on record?
Its EC50 is 3.61 nM.

For `C[C@@H](C[C@@H](F)Cn1ccc2cc(-c3ccc(C(F)(F)F)cn3)c(F)cc2c1=O)Nc1cn[nH]c(=O)c1C(F)(F)F` [Example 76], which EC50 is on record?
Its EC50 is 2.59 nM.

With `O=c1[nH]ncc(N[C@@H](CO)C[C@@H](F)Cn2ccc3cc(-c4ncc(C(F)F)cn4)c(F)cc3c2=O)c1C(F)(F)F` [Example 125] as the molecule, how does the EC50 read?
The EC50 was 41.2 nM.

Which EC50 does the source give for `CC(C)(O)c1cnc(-c2cc3ccn(CC(F)CC(COC(F)F)Nc4cn[nH]c(=O)c4C(F)(F)F)c(=O)c3cc2F)nc1` (stereo not shown) [Example 129] here?
Its EC50 is 8.24 nM.

How did the EC50 turn out when `C[C@@H](C[C@@H](F)Cn1cc(F)c2cc(-c3ncc(C(F)F)c(N)n3)c(F)cc2c1=O)Oc1cn[nH]c(=O)c1C(F)(F)F` [Example 54] was run?
Its EC50 is 23.7 nM.

With `C[C@@H](C[C@H](F)Cn1ccc2cc(-c3ncc(C(F)(F)F)cn3)c(F)cc2c1=O)Nc1cn[nH]c(=O)c1C(F)(F)F` (single isomer, unassigned) [Example 3] as the molecule, how does the EC50 read?
Its EC50 is 11.7 nM.

Which EC50 does the source give for `C[C@@H](C[C@H](F)Cn1cc(F)c2cc(-c3ncc(C(F)F)c(N)n3)c(F)cc2c1=O)Oc1cn[nH]c(=O)c1C(F)(F)F` [Example 64] here?
The EC50 was 0.42 nM.

Which EC50 does the source give for `COc1cnc(-c2cc3ccn(C[C@H](F)C[C@H](C)Oc4cn[nH]c(=O)c4C(F)(F)F)c(=O)c3cc2F)nc1N` [Example 40] here?
The EC50 was 14.7 nM.

For `C[C@@H](C[C@H](O)Cn1ccc2cc(-c3ncc(C(F)F)cn3)c(F)cc2c1=O)Oc1cn[nH]c(=O)c1C(F)(F)F` (single isomer, unassigned) [Example 20], which EC50 is on record?
The EC50 was 33 nM.

Which EC50 does the source give for `C[C@@H](CC(F)Cn1ccc2cc(-c3ncc(C(C)(C)O)cn3)c(F)cc2c1=O)Oc1cn[nH]c(=O)c1C(F)(F)F` (stereo partly shown) [Example 37] here?
Its EC50 is 4.11 nM.

`[2H]C([2H])([2H])Oc1cnc(-c2cc3ncn(C[C@H](F)C[C@H](C)Nc4cn[nH]c(=O)c4C(F)(F)F)c(=O)c3cc2F)nc1` [Example 115] was tested. Which EC50 did it give?
Its EC50 is 7.27 nM.

For `C[C@@H](C[C@@H](F)Cn1ccc2cc(-c3ncc(C(F)(F)F)cn3)c(F)c(F)c2c1=O)Oc1cn[nH]c(=O)c1C(F)(F)F` [Example 47], which EC50 is on record?
Its EC50 is 0.814 nM.

For `Cc1cnc(-c2cc3ccn(C[C@H](F)C[C@H](C)Nc4cn[nH]c(=O)c4C(F)(F)F)c(=O)c3cc2F)nc1` [Example 110], which EC50 is on record?
Its EC50 is 1.11 nM.

For `C[C@@H](C[C@H](O)Cn1ccc2cc(-c3nc4ccccn4n3)c(F)cc2c1=O)Nc1cn[nH]c(=O)c1C(F)(F)F` (single isomer, unassigned) [Example 23], which EC50 is on record?
Its EC50 is 7.18 nM.

`COc1cnc(-c2cc3c(F)cn(C[C@H](F)C[C@H](C)Nc4cn[nH]c(=O)c4C(F)(F)F)c(=O)c3cc2F)nc1` [Example 25] was tested. Which EC50 did it give?
Its EC50 is 1.01 nM.

How did the EC50 turn out when `C[C@@H](C[C@@H](F)Cn1ccc2cc(-c3ncc4c(n3)NCCO4)c(F)cc2c1=O)Nc1cn[nH]c(=O)c1C(F)(F)F` [Example 113] was run?
Its EC50 is 1.94 nM.

`C[C@@H](C[C@@H](F)Cn1ccc2cc(-c3ncc([C@@H](F)CF)cn3)c(F)cc2c1=O)Nc1cn[nH]c(=O)c1C(F)(F)F` [Example 92] was tested. Which EC50 did it give?
The EC50 was 1.89 nM.

How did the EC50 turn out when `C[C@@H](C[C@@H](F)Cn1ccc2cc(-c3ncccn3)c(F)cc2c1=O)Nc1cn[nH]c(=O)c1C(F)(F)F` [Example 109] was run?
Its EC50 is 5.63 nM.

Which EC50 does the source give for `C[C@@H](C[C@@H](F)Cn1ccc2cc(-c3ncc(C(C)(F)F)cn3)c(F)c(F)c2c1=O)Nc1cn[nH]c(=O)c1C(F)(F)F` [Example 98] here?
Its EC50 is 0.97 nM.

Which EC50 does the source give for `C[C@@H](C[C@@H](F)Cn1cc(F)c2cc(-c3ncc(C(F)(F)F)cn3)c(F)cc2c1=O)Oc1cn[nH]c(=O)c1C(F)(F)F` [Example 55] here?
Its EC50 is 135 nM.

For `CC[C@@H](C[C@@H](F)Cn1ccc2cc(-c3ncc(C(F)(F)F)cn3)c(F)cc2c1=O)Nc1cn[nH]c(=O)c1C(F)(F)F` [Example 118, 7-fluoro-2-((2R,4S)-2-fluoro-4-((6-oxo-5-(trifluoromethyl)-1,6-dihydropyridazin-4-yl)amino)hexyl)-6-(5-(trifluoromethyl)pyrimidin-2-yl)isoquinolin-1(2H)-one], which EC50 is on record?
Its EC50 is 2.18 nM.

Which EC50 does the source give for `C[C@@H](C[C@@H](F)Cn1ccc2cc(-c3cc4c(cn3)C(F)(F)CC4)c(F)cc2c1=O)Nc1cn[nH]c(=O)c1C(F)(F)F` [Example 91] here?
The EC50 was 1.69 nM.

How did the EC50 turn out when `C[C@@H](C[C@@H](F)Cn1ccc2cc(-c3nccs3)c(F)cc2c1=O)Nc1cn[nH]c(=O)c1C(F)(F)F` [Example 103] was run?
Its EC50 is 138 nM.

`C[C@@H](C[C@@H](F)Cn1ccc2cc(-c3ncc4c(n3)NC(=O)C4(C)C)c(F)cc2c1=O)Nc1cn[nH]c(=O)c1C(F)(F)F` [Example 89] was tested. Which EC50 did it give?
The EC50 was 12 nM.

For `C[C@@H](C[C@@H](F)Cn1ccc2cc(-c3cnccn3)c(F)cc2c1=O)Nc1cn[nH]c(=O)c1C(F)(F)F` [Example 104], which EC50 is on record?
Its EC50 is 36.4 nM.

`C[C@@H](C[C@@H](F)Cn1ccc2cc(-c3ncc(C(F)(F)F)cn3)c(F)cc2c1=O)Oc1cn[nH]c(=O)c1C(F)(F)F` [Example 12] was tested. Which EC50 did it give?
Its EC50 is 45.1 nM.

For `C[C@@H](CC(F)Cn1cnc2cc(-c3ncc(C(F)(F)F)cn3)c(F)cc2c1=O)Oc1cn[nH]c(=O)c1C(F)(F)F` (stereo partly shown) [Example 36], which EC50 is on record?
The EC50 was 10.8 nM.

Which EC50 does the source give for `C[C@@H](C[C@@H](F)Cn1cc(F)c2cc(-c3ncc(C(F)(F)F)cn3)c(F)cc2c1=O)Nc1cn[nH]c(=O)c1C(F)(F)F` [Example 30] here?
The EC50 was 1.54 nM.

`C[C@@H](C[C@@H](F)Cn1ccc2cc(-c3ncc(C(F)F)c(N)n3)c(F)c(F)c2c1=O)Nc1cn[nH]c(=O)c1C(F)(F)F` [Example 101] was tested. Which EC50 did it give?
Its EC50 is 4.36 nM.

How did the EC50 turn out when `C[C@@H](C[C@@H](F)CN1Cc2cc(-c3ncc(C(F)(F)F)cn3)c(F)cc2C1=O)Nc1cn[nH]c(=O)c1C(F)(F)F` [Example 117, 6-fluoro-2-[(2R,4S)-2-fluoro-4-[[6-oxo-5-(trifluoromethyl)-1H-pyridazin-4-yl]amino]pentyl]-5-[5-(trifluoromethyl)pyrimidin-2-yl]isoindolin-1-one] was run?
The EC50 was 11.8 nM.

With `C[C@@H](C[C@@H](F)Cn1ccc2cc(-c3ncc([C@@](C)(O)C(F)F)cn3)c(F)cc2c1=O)Nc1cn[nH]c(=O)c1C(F)(F)F` [Example 86] as the molecule, how does the EC50 read?
The EC50 was 10.1 nM.

With `C[C@@H](C[C@@H](F)Cn1ccc2cc(-c3ncc(OC(F)(F)F)cn3)c(F)cc2c1=O)Nc1cn[nH]c(=O)c1C(F)(F)F` [Example 77] as the molecule, how does the EC50 read?
Its EC50 is 2.5 nM.

With `O=c1[nH]ncc(O[C@@H](CCCn2ccc3cc(-c4ncc(C(F)(F)F)cn4)c(F)cc3c2=O)COC(F)F)c1C(F)(F)F` [Example 120] as the molecule, how does the EC50 read?
The EC50 was 1000 nM.

`C[C@@H](C[C@@H](F)Cn1ccc2cc(-c3ncc(C(C)(O)C(F)(F)F)cn3)c(F)cc2c1=O)Nc1cn[nH]c(=O)c1C(F)(F)F` (stereo partly shown) [Example 84] was tested. Which EC50 did it give?
The EC50 was 2.79 nM.

How did the EC50 turn out when `[2H]C([2H])([2H])Oc1cnc(-c2cc3ccn(C[C@H](F)C[C@H](C)Nc4cn[nH]c(=O)c4C(F)(F)F)c(=O)c3cc2F)nc1` [Example 27] was run?
The EC50 was 1.05 nM.

Which EC50 does the source give for `COc1cnc(-c2cc3ncn(C[C@H](F)C[C@H](C)Oc4cn[nH]c(=O)c4C(F)(F)F)c(=O)c3cc2F)nc1` (single isomer, unassigned) [Example 57] here?
Its EC50 is 38.8 nM.

Which EC50 does the source give for `COC(C[C@H](C)Nc1cn[nH]c(=O)c1C(F)(F)F)Cn1ccc2cc(-c3ncc(C(F)(F)F)cn3)c(F)cc2c1=O` (stereo partly drawn) [Example 10, 7-fluoro-2-((4S)-2-methoxy-4-((6-oxo-5-(trifluoromethyl)-1,6-dihydropyridazin-4-yl)amino)pentyl)-6-(5-(trifluoromethyl)pyrimidin-2-yl)isoquinolin-1(2H)-one] here?
Its EC50 is 30.8 nM.

For `C[C@@H](C[C@@H](F)Cn1ccc2cc(-c3ncc(C(F)(F)CO)cn3)c(F)cc2c1=O)Nc1cn[nH]c(=O)c1C(F)(F)F` [Example 85], which EC50 is on record?
The EC50 was 4.39 nM.

Which EC50 does the source give for `C[C@@H](C[C@@H](F)Cn1cnc2cc(-c3ncc(C(F)(F)F)cn3)c(F)cc2c1=O)Nc1cn[nH]c(=O)c1C(F)(F)F` [Example 71] here?
Its EC50 is 2.17 nM.

For `C[C@@H](C[C@@H](F)Cn1ccc2cc(-c3ncc(C(C)(C)O)cn3)c(F)c(F)c2c1=O)Nc1cn[nH]c(=O)c1C(F)(F)F` [Example 28], which EC50 is on record?
The EC50 was 6.51 nM.

With `C[C@@H](C[C@@H](F)Cn1ccc2cc(-c3ncc(C(C)(C)F)cn3)c(F)cc2c1=O)Nc1cn[nH]c(=O)c1C(F)(F)F` [Example 96] as the molecule, how does the EC50 read?
Its EC50 is 1.61 nM.

How did the EC50 turn out when `C[C@@H](C[C@@H](F)Cn1ccc2cc(-c3ncc(OC(F)(F)CO)cn3)c(F)cc2c1=O)Nc1cn[nH]c(=O)c1C(F)(F)F` [Example 82] was run?
Its EC50 is 2.15 nM.

For `O=c1[nH]ncc(NC(COC(F)F)C[C@@H](F)Cn2ccc3cc(-c4ncc(C(F)(F)F)cn4)c(F)cc3c2=O)c1C(F)(F)F` (stereo partly drawn) [Example 126, 2-[(2R)-5-(difluoromethoxy)-2-fluoro-4-[[6-oxo-5-(trifluoromethyl)-1H-pyridazin-4-yl]amino]pentyl]-7-fluoro-6-[5-(trifluoromethyl)pyrimidin-2-yl]isoquinolin-1-one], which EC50 is on record?
Its EC50 is 3.3 nM.
